Measured values published in the supplement of paper PMC10307832.

Tests used:
Assay in all cases: relative viability (nuclei count vs DMSO), 5 days (fraction); higher = more cells survive
Tozasertib + Alpelisib = compound: Cc1cc(Nc2cc(N3CCN(C)CC3)nc(Sc3ccc(NC(=O)C4CC4)cc3)n2)n[nH]1 [Tozasertib] + Cc1nc(NC(=O)N2CCC[C@H]2C(N)=O)sc1-c1ccnc(C(C)(C)C(F)(F)F)c1 [Alpelisib] (partner 2 µM)
In short: (§1)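 Each reported value is a median over duplicate plates. It expresses relative viability: treated-well nuclei count divided by vehicle-well nuclei count. Lung cancer cell lines in 1536-well plates were dosed by pin tool a day after seeding, alone with one drug or with a fixed anchor-drug dose plus five library-drug doses (not always all listed) in √10 steps, and nuclei were counted after 5 days.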

Tozasertib + Linsitinib = compound: Cc1cc(Nc2cc(N3CCN(C)CC3)nc(Sc3ccc(NC(=O)C4CC4)cc3)n2)n[nH]1 [Tozasertib] + C[C@]1(O)C[C@@H](c2nc(-c3ccc4ccc(-c5ccccc5)nc4c3)c3c(N)nccn32)C1 [Linsitinib] (partner 1 µM)
In short: as §1

Tozasertib + Lapatinib = compound: Cc1cc(Nc2cc(N3CCN(C)CC3)nc(Sc3ccc(NC(=O)C4CC4)cc3)n2)n[nH]1 [Tozasertib] + CS(=O)(=O)CCNCc1ccc(-c2ccc3ncnc(Nc4ccc(OCc5cccc(F)c5)c(Cl)c4)c3c2)o1 [Lapatinib] (partner 2 µM)
In short: as §1

Tozasertib + AZD7762 = compound: Cc1cc(Nc2cc(N3CCN(C)CC3)nc(Sc3ccc(NC(=O)C4CC4)cc3)n2)n[nH]1 [Tozasertib] + NC(=O)Nc1cc(-c2cccc(F)c2)sc1C(=O)N[C@H]1CCCNC1 [AZD7762] (partner 0.2 µM)
In short: as §1

Tozasertib + Dasatinib = compound: Cc1cc(Nc2cc(N3CCN(C)CC3)nc(Sc3ccc(NC(=O)C4CC4)cc3)n2)n[nH]1 [Tozasertib] + Cc1nc(Nc2ncc(C(=O)Nc3c(C)cccc3Cl)s2)cc(N2CCN(CCO)CC2)n1 [Dasatinib] (partner 0.075 µM)
In short: as §1

Cell Line	relative viability (Tozasertib + Alpelisib; first compound 0.004 µM)	relative viability (Tozasertib + Alpelisib; first compound 0.01265 µM)	relative viability (Tozasertib + Alpelisib; first compound 0.04 µM)	relative viability (Tozasertib + Alpelisib; first compound 0.1265 µM)	relative viability (Tozasertib + Linsitinib; first compound 0.004 µM)	relative viability (Tozasertib + Linsitinib; first compound 0.01265 µM)	relative viability (Tozasertib + Linsitinib; first compound 0.1265 µM)	relative viability (Tozasertib + Lapatinib; first compound 0.004 µM)	relative viability (Tozasertib + Lapatinib; first compound 0.01265 µM)	relative viability (Tozasertib + Lapatinib; first compound 0.04 µM)	relative viability (Tozasertib + Lapatinib; first compound 0.1265 µM)	relative viability (Tozasertib + AZD7762; first compound 0.004 µM)	relative viability (Tozasertib + AZD7762; first compound 0.01265 µM)	relative viability (Tozasertib + AZD7762; first compound 0.04 µM)	relative viability (Tozasertib + AZD7762; first compound 0.1265 µM)	relative viability (Tozasertib + Dasatinib; first compound 0.004 µM)	relative viability (Tozasertib + Dasatinib; first compound 0.01265 µM)	relative viability (Tozasertib + Dasatinib; first compound 0.04 µM)	relative viability (Tozasertib + Dasatinib; first compound 0.1265 µM)	relative viability (Tozasertib + Linsitinib; first compound 0.04 µM)
HCC-827	1.03	0.931	1.06	0.954	1.02	1	0.84	0.222	0.18	0.215	0.192	0.16	0.204	0.23	0.2	0.299	0.282	0.352	0.345	–
HOP-62	1.05	0.887	0.937	0.937	1.05	0.876	1.09	1.06	0.999	0.856	0.943	0.505	0.485	0.613	0.289	0.676	0.615	0.672	0.668	–
LC-2-ad	0.881	0.82	1.02	0.354	0.906	0.82	0.329	1.01	0.884	0.97	0.509	0.868	0.763	0.915	0.731	0.624	0.565	0.482	0.236	0.684
LCLC-97TM1	–	0.247	0.32	0.207	–	0.204	0.163	–	0.884	1.04	0.592	0.166	0.194	0.164	0.211	0.809	0.695	0.948	0.783	0.155
LCLC-103H	0.817	0.895	0.952	0.994	1.07	1.03	1.34	–	–	–	–	0.724	0.842	0.846	0.732	0.539	0.452	0.456	0.478	0.987
NCI-H441	0.69	0.69	0.758	0.541	0.496	0.551	0.353	–	–	–	–	1.61	0.989	1.17	1.08	0.655	0.643	–	0.474	0.616
NCI-H520	0.945	0.844	0.889	0.864	1.07	0.952	0.472	0.868	0.816	0.775	0.214	–	–	–	–	0.265	0.203	0.209	0.138	0.978
NCI-H522	–	–	–	–	–	–	–	–	–	–	–	–	0.841	0.772	0.47	0.836	1.12	1.01	0.725	–
NCI-H661	0.568	0.735	0.776	0.496	0.61	0.564	0.402	0.581	–	0.427	0.376	–	–	–	–	1.12	0.85	0.699	0.249	0.497
NCI-H1650	–	–	–	–	–	–	–	0.914	0.712	0.879	0.168	–	–	–	–	0.311	0.377	–	0.167	–
NCI-H1703	0.364	0.357	0.445	0.209	1.26	0.833	0.626	1.4	0.918	1.11	0.301	0.0927	–	0.126	0.12	–	–	–	–	0.808
NCI-H2009	1.18	1.17	1.15	1.14	1.19	1.22	1.19	1.01	0.512	0.885	0.361	–	–	–	–	0.307	0.292	0.266	0.213	1.15
NCI-H2023	0.645	0.541	0.539	0.628	0.626	0.633	0.628	0.796	1.01	0.947	0.123	–	–	–	–	0.562	0.506	0.572	0.318	0.694
NCI-H2170	0.721	0.769	0.838	0.679	–	–	–	0.271	0.288	0.278	0.251	0.81	0.893	0.848	0.788	0.565	0.501	0.546	0.445	–
NCI-H2228	0.806	–	0.556	0.434	0.526	–	0.557	0.958	–	0.765	0.336	–	–	–	–	0.493	0.493	0.546	0.232	0.766
NCI-H2342	–	–	–	–	–	–	–	–	–	–	–	0.578	0.532	0.514	0.398	0.338	0.293	0.314	0.292	–
SK-LU-1	1.27	1.02	1.19	0.561	1.32	1.09	0.957	1.25	1.06	1.08	0.651	–	–	–	–	0.183	0.191	0.188	0.146	1.03
SK-MES-1	0.967	0.746	0.894	0.535	1.1	1.02	1.1	0.477	0.468	0.514	0.438	–	–	–	–	0.358	0.336	0.342	0.356	1.14
SW 900	–	–	–	–	–	–	–	–	–	–	–	0.485	0.72	0.622	0.467	0.79	0.51	0.503	0.567	–
SW 1573	0.751	0.674	0.615	0.702	0.76	0.901	0.517	1.03	1.23	1.21	1.05	–	–	–	–	0.505	0.43	0.361	0.0939	–
UMC-11	1.08	0.968	1.13	0.146	1.1	1.03	0.173	1.03	0.944	1.04	0.244	–	–	–	–	0.495	0.545	0.521	0.161	1.06
